From BindingDB's records for doi:10.1016/j.ejmech.2008.07.020 (Jadavpur University, 2009)

Molecular target: Reverse transcriptase/RNaseH (Human immunodeficiency virus 1, UniProt Q72547)
Experiment: Inhibition of HIV1 reverse transcriptase

| IC50 [µM] | SMILES |
| --- | --- |
| 182 | CCCC1CN(CCC)Cc2cccc3[nH]c(=O)n1c23 (stereo not drawn) |
| 849 | C[C@H]1Cn2c(=O)[nH]c3ccc(N)c(c32)CN1CC1CC1 |
| 100 | CCCCN1Cc2cccc3[nH]c(=O)n(c23)C[C@@H]1C |
